≈ marks a conversion by molar mass, not a printed value. Read-outs that look alike come from different tables or passages of the source.
Columns and labels:
[1] = Hepatic microsomal stability, rat
[2] = Multidose (three-day) pharmacokinetics in liquid diet in FVB mice; conditions: FVB, mouse, in vivo
[3] = Hepatic microsomal stability, mouse; conditions: for half-life at 1 μM: CD-1, mouse, pH 7.4
[4] = Hepatic microsomal stability, human; conditions: for half-life at 1 μM: human, pH 7.4
[5] = Multiple-dose (three-day) pharmacokinetic studies in FVB mice, drug in liquid diet; assay type: in vivo, mouse; conditions: FVB, mouse, oral, 3 days in liquid diet, 40, 80, 130, 210 mg/kg/day
Procedure: Aminothiazole analog (e.g., 4.5 g of 27) was added to 15 mL of pure PEG400, vortexed and sonicated to ensure dissolution, then stored at −4° C. until needed. This highly concentrated PEG400 solution was subsequently diluted to final dosing concentrations, where the volume added was composed of homogenized solid rodent feed, cocoa (taste masking agent), and water. Wild-type FVB mice weigh ˜25 gm and typically drink 20 mL of liquid diet per day, allowing an estimate of daily drug consumption. A single dosing cohort consisted of three mice in a shared cage and liquid diet was provided at the start of the study in sufficient volume to last for the entire three-day trial (˜200 mL). At the end of the three-day dosing period, animals were euthanized by CO2, followed by collection of plasma (cardiac puncture) and removal of whole brain. Heparinized blood was centrifuged to separate plasma and both plasma and brain samples were stored at −80° C. prior to analysis. Plasma samples were prepared for analysis by precipitating proteins and reconstituting the remaining fraction with HPLC mobile phase. Brain samples were typically prepared by four-fold dilution with water after weighing, then homogenized using bead-beater or Polytron™ resulting in a highly concentrated solution that was further diluted with mobile phase as appropriate in preparation for bioanalytical analysis using LC-MS. Analysis was by LC-MS (Shimadzu dual-HPLC pumps, C18 analytical column, with detection using an Applied Biosystems API-4000 triple quadrupole mass spectrometer).
Ten compounds were selected from among the 34 2-AMTs for three-day multiple-dose PK studies at PO doses ranging from 40-210 mg/kg. Selection was based on diversity in potency, chemical structure, and a range of physicochemical properties. We used a liquid diet to facilitate easy drug administration, as well as serve as the daily source of all water and food. This approach was chosen because the mouse bioassay studies that would be used to assess drug effects on survival would be expected to run for 110 to 400 days, or more; gavage dosing for such a long period is not feasible and more stressful to mice. For the multiple-dose PK studies, 4.5 g of the 2-AMT analogs was added to 15 mL of pure PEG400, vortexed and sonicated to ensure dissolution, then stored at −4° C. until needed. This highly concentrated PEG400 solution was subsequently diluted to final dosing concentrations and added to the rodent liquid diet, cocoa (taste-masking agent), and water.
Wild-type FVB mice weigh ˜25 g and typically drink 20 mL of liquid diet per day, allowing an estimate of daily drug consumption. A single dosing cohort consisted of three mice in a shared cage and liquid diet was provided at the start of the study in sufficient volume (˜200 mL) to last for the entire three-day period. At the end of the dosing period, animals were euthanized by CO2, followed by collection of plasma (cardiac puncture) and removal of whole brain. Samples were processed and stored as described above for the 10 mg/kg single-dose studies.
Plasma and brain homogenate samples were extracted using a protein-precipitation method and analyzed by specific LC/MS/MS methods developed for each compound dosed in vivo. The analytical method accuracy and precision were monitored by analyzing quality control (QC) samples that were prepared by the same methods as the plasma or brain homogenate samples. The brain and plasma concentration data were used to calculate the maximal concentration (Cmax), area under the concentration-time curve (AUClast), and absolute bioavailability (% F) by noncompartmental analysis with sparse sampling performed using Phoenix WinNonlin 6.1 software (Pharsight, Mountain View, Calif.).

[6] = physchem
[7] = test system: PrP^C in IMR32 cells; assay type: cell-based, human
[8] = test system: PrP^C in T98G cells; assay type: cell-based, human
[9] = test system: T98G cells; assay: cells; assay type: cell-based, human; conditions: calcein, T98G cells
[10] = test system: IMR32 cells; assay type: cell-based, human
[11] = "rat human hepatic microsomes", NADPH with UDPGA or PBS
[12] = test system: PrP^Sc in dividing ScN2a-cl3 cells; assay type: cell-based, mouse
[13] = 40 mg/kg, Plasma Concentration (Css), three-day dosing in liquid diet, plasma
[14] = 80 mg/kg, Brain Concentration (Css), three-day dosing in liquid diet, brain
[15] = 80 mg/kg, Plasma Concentration (Css), three-day dosing in liquid diet, plasma
[16] = 130 mg/kg, Brain Concentration (Css), three-day dosing in liquid diet, brain
[17] = 130 mg/kg, Plasma Concentration (Css), three-day dosing in liquid diet, plasma
[18] = 210 mg/kg, Brain Concentration (Css), three-day dosing in liquid diet, brain
[19] = 210 mg/kg, Plasma Concentration (Css), three-day dosing in liquid diet, plasma
[20] = Brain and plasma concentrations, 40, 80, 130 and 210 mg/kg/day for 3 days
[21] = brain, read-out: brain concentration
[22] = plasma, read-out: plasma concentration
[23] = cell culture media, plasma or biological fluid

In the case of `COc1ccc(-c2csc(Nc3cc4ccccc4cn3)n2)cc1OC` [IND46, [4-(3,4-Dimethoxy-phenyl)-thiazol-2-yl]-isoquinolin-3-yl-amine], the half-life at 1 μM ([1]; Sprague-Dawley, rat, […], pH 7.4) is reported as > 1 h, the “% remaining after a 60-min incubation, Rat” value ([1]; […], 60-min incubation) is reported as 61% and the “t1/2 Rat (extrapolated)” value ([1]; rat microsomes, * extrapolated) is reported as 83* min. For the same compound, the concentration at 3 days ([2]; 40 mg/kg, Brain Concentration (Css), three-day dosing in liquid diet, brain) was 30 ± 30 nM, the concentration at 3 days [2, 13] was 50 ± 20 nM and the concentration at 3 days [2, 14] was 60 ± 70 nM. It also gave a concentration at 3 days [2, 15] of 60 ± 30 nM, a concentration at 3 days [2, 16] of 140 ± 40 nM and a concentration at 3 days [2, 17] of 80 ± 40 nM. For the same compound, the concentration at 3 days [2, 18] was 320 ± 110 nM, the concentration at 3 days [2, 19] was 140 ± 30 nM and the concentration at 3 days [2, 20] was ≤ 1000 nM. The half-life at 1 μM ([3]; liver microsomes) was 1.25 h, the half-life at 1 μM ([3]; mouse liver microsomes) was > 1 h and the “% remaining after a 60-min incubation, Mouse” value ([3]; mouse liver microsomes, 60-min incubation) was 58%. The “% remaining after a 60-min incubation, Human” value ([4]; human liver microsomes, 60-min incubation) was 83%, the half-life at 1 μM ([4]; human liver microsomes) was > 1 h and the half-life at 1 μM ([4]; liver microsomes) was > 1 h. For the same compound, the “solubility in FaSSIF (in words)” value (fasted-state simulated intestinal fluid) was “lower solubility”, the “solubility at pH 2.0 (in words)” value (pH 2 (HCl) buffer) was “lower solubility” and the concentration at 3 days [5, 21] was ≤ 1000 nM. The concentration at 3 days [5, 22] was ≤ 1000 nM, the solubility ([6]; FaSSIF) was 5 µM (≈ 1.82 µg/mL) and the solubility [6, 23] was 174 µM (≈ 63.2 µg/mL). The solubility ([6]; pH 2 (HCl) buffer, pH 2, simulated gastric fluid) was < 1 µM and the solubility ([6]; pH 7.4 (phosphate) buffer, pH 7.4, aqueous buffer) was < 1 µM.

In the case of `COc1ccc(C(=O)NCc2cc(C)nc3ccccc23)cc1` [IND-0086056], the “% Inhibition: SPC (IMR32)” value [7] is reported as “MW: 306.4 % Inhibition: SPC (IMR32): 45 Calcein: 18 SPC (T98G): 49 Calcein: 20”, the “% Inhibition: SPC (T98G)” value [8] is reported as “MW: 306.4 % Inhibition: SPC (IMR32): 45 Calcein: 18 SPC (T98G): 49 Calcein: 20” and the “% Inhibition: Calcein (T98G)” value [9] is reported as 20%. For the same compound, the “% Inhibition: Calcein (IMR32)” value [10] was 18%.

In the case of `Cc1ncc2n1-c1ccc(Cl)cc1C(c1ccccc1F)=NC2` [Midazolam, reference compound], the “T1/2, control incubations” value [11] is reported as 0.183 h.

In the case of `Cc1[nH]c2ccccc2c1-c1ccnc2ccccc12` [IND-0010878], the “% Inhibition: SPC (IMR32)” value [7] is reported as “MW: 318.4 % Inhibition: SPC (IMR32): 34 Calcein: 19 SPC (T98G): 64 Calcein: 25”, the “% Inhibition: SPC (T98G)” value [8] is reported as “MW: 318.4 % Inhibition: SPC (IMR32): 34 Calcein: 19 SPC (T98G): 64 Calcein: 25” and the “% Inhibition: Calcein (T98G)” value [9] is reported as 25%. The “% Inhibition: Calcein (IMR32)” value [10] was 19%.

For `OCCNC1CCCc2c1[nH]c1ccc(Br)cc21` (stereo not drawn) [IND-0015066], the “% Inhibition: SPC (IMR32)” value [7] was “MW: 309.2 % Inhibition: SPC (IMR32): 45 Calcein: 2 SPC (T98G): −11 Calcein: −27”, the “% Inhibition: SPC (T98G)” value [8] was “MW: 309.2 % Inhibition: SPC (IMR32): 45 Calcein: 2 SPC (T98G): −11 Calcein: −27” and the “% Inhibition: Calcein (T98G)” value [9] was −27%. For the same compound, the “% Inhibition: Calcein (IMR32)” value [10] was 2%.

For `Cc1cccc(Nc2nc(-c3ccncc3)cs2)c1` [IND-0022317], the “% Inhibition: SPC (IMR32)” value [7] was “MW: 267.4 % Inhibition: SPC (IMR32): 87 Calcein: 35 SPC (T98G): 65 Calcein: 5”, the “% Inhibition: SPC (T98G)” value [8] was “MW: 267.4 % Inhibition: SPC (IMR32): 87 Calcein: 35 SPC (T98G): 65 Calcein: 5” and the “% Inhibition: Calcein (T98G)” value [9] was 5%. For the same compound, the “% Inhibition: Calcein (IMR32)” value [10] was 35%.

For `CCc1ccc(C2C(C#N)=C(N)Oc3cc(N(C)C)ccc32)cc1` (stereo not drawn) [IND-0020681], the “% Inhibition: SPC (IMR32)” value [7] was “MW: 319.4 % Inhibition: SPC (IMR32): 48 Calcein: 39 SPC (T98G): 43 Calcein: 21”, the “% Inhibition: SPC (T98G)” value [8] was “MW: 319.4 % Inhibition: SPC (IMR32): 48 Calcein: 39 SPC (T98G): 43 Calcein: 21” and the “% Inhibition: Calcein (T98G)” value [9] was 21%. For the same compound, the “% Inhibition: Calcein (IMR32)” value [10] was 39%.

With `O=[N+]([O-])c1ccc(O)cc1` [4-Nitrophenol, reference compound] the “T1/2, control incubations” value [11] was 0.333 h.

For `CCS(=O)(=O)c1ncc(Cl)c(C(=O)Nc2ccccc2C)n1` [IND-0081396], the “% Inhibition: SPC (IMR32)” value [7] was “MW: 339.8 % Inhibition: SPC (IMR32): 91 Calcein: 15 SPC (T98G): −5 Calcein: −8”, the “% Inhibition: SPC (T98G)” value [8] was “MW: 339.8 % Inhibition: SPC (IMR32): 91 Calcein: 15 SPC (T98G): −5 Calcein: −8” and the “% Inhibition: Calcein (T98G)” value [9] was −8%. For the same compound, the “% Inhibition: Calcein (IMR32)” value [10] was 15%.

For `c1ccc2cc(Nc3nc(-c4cc5ccccc5o4)cs3)ncc2c1` [IND91, (4-Benzofuran-2-yl-thiazol-2-yl)-isoquinolin-3-yl-amine], the concentration at 3 days [2, 13] was 260 ± 130 nM, the concentration at 3 days [2, 14] was 190 ± 90 nM and the concentration at 3 days [2, 15] was 1550 ± 360 nM. It also gave a concentration at 3 days [2, 16] of 260 ± 120 nM, a concentration at 3 days [2, 17] of 1740 ± 310 nM and a concentration at 3 days [2, 18] of 280 ± 40 nM. The concentration at 3 days [2, 19] was 3060 ± 560 nM, the concentration at 3 days [2, 20] was ≤ 1000 nM and the concentration at 3 days [5, 21] was ≤ 1000 nM. For the same compound, the concentration at 3 days [5, 22] was ≤ 1000 nM, the EC50 ([12]; AMT analogs tested for potency) was 923 nM and the EC50 ([12]; Table 29, 2-AMT analogs tested for potency, usually n = 3 or more) was 923 nM. It also gave a solubility [6, 23] of 151 µM (≈ 51.9 µg/mL).

In the case of `CCS(=O)(=O)c1ncc(Cl)c(C(=O)Nc2ccc(F)cc2)n1` [IND-0081737], the “% Inhibition: SPC (IMR32)” value [7] is reported as “MW: 343.8 % Inhibition: SPC (IMR32): 41 Calcein: 18 SPC (T98G): −10 Calcein: −4”, the “% Inhibition: SPC (T98G)” value [8] is reported as “MW: 343.8 % Inhibition: SPC (IMR32): 41 Calcein: 18 SPC (T98G): −10 Calcein: −4” and the “% Inhibition: Calcein (T98G)” value [9] is reported as −4%. The “% Inhibition: Calcein (IMR32)” value [10] was 18%.

Source: patent US20140329863A1 (priority 2011, published 2014)
